Test system: IGROV1 complex spheroids (HUVEC, MSC), viability % test/control
Assay: Anticancer human tumor IGROV1 cell line growth inhibition [GQUAD];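 note: spheroids exposed to compounds for 7 days before readout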;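 for viability, T/C: 100% = DMSO vehicle control viability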
Conditions: for IC50: curve of first compound; for viability, T/C: stronger effect = lower value
How it was run: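 Multi-cell-type spheroids of tumor cells with HUVEC and mesenchymal stem cells, treated with drug combinations. Concentrations descend in half-log steps from near clinical Cmax, or from 10 microM where Cmax is unknown; viability read-out.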

[1] = second compound 0.0316 µM, first compound 0.0316 µM
[2] = second compound 0.0316 µM, first compound 0.1 µM
[3] = second compound 0.0316 µM, first compound 0.316 µM
[4] = second compound 0.0316 µM, first compound 1 µM
[5] = second compound 0.0316 µM, first compound 3.16 µM
[6] = second compound 0.0316 µM, first compound 10 µM
[7] = second compound 0.1 µM, first compound 0.0316 µM
[8] = second compound 0.1 µM, first compound 0.1 µM
[9] = second compound 0.1 µM, first compound 0.316 µM
[10] = second compound 0.1 µM, first compound 1 µM
[11] = second compound 0.1 µM, first compound 3.16 µM
[12] = second compound 0.1 µM, first compound 10 µM
[13] = second compound 0.316 µM, first compound 0.0316 µM
[14] = second compound 0.316 µM, first compound 0.1 µM
[15] = second compound 0.316 µM, first compound 0.316 µM
[16] = second compound 0.316 µM, first compound 1 µM
[17] = second compound 0.316 µM, first compound 3.16 µM
[18] = second compound 0.316 µM, first compound 10 µM
[19] = second compound 1 µM, first compound 0.0316 µM
[20] = second compound 1 µM, first compound 0.1 µM
[21] = second compound 1 µM, first compound 0.316 µM
[22] = second compound 1 µM, first compound 1 µM
[23] = second compound 1 µM, first compound 3.16 µM
[24] = second compound 1 µM, first compound 10 µM
[25] = second compound 3.16 µM, first compound 0.0316 µM
[26] = second compound 3.16 µM, first compound 0.1 µM
[27] = second compound 3.16 µM, first compound 0.316 µM
[28] = second compound 3.16 µM, first compound 1 µM
[29] = second compound 3.16 µM, first compound 3.16 µM
[30] = second compound 3.16 µM, first compound 10 µM
[31] = second compound 10 µM, first compound 0.0316 µM
[32] = second compound 10 µM, first compound 0.1 µM
[33] = second compound 10 µM, first compound 0.316 µM
[34] = second compound 10 µM, first compound 1 µM
[35] = second compound 10 µM, first compound 3.16 µM
[36] = second compound 10 µM, first compound 10 µM

C=CCn1c(=O)c2cnc(Nc3ccc(N4CCN(C)CC4)cc3)nc2n1-c1cccc(C(C)(C)O)n1 + Cc1[nH]c2ccc(F)cc2c1-c1nc2c3cccnc3c3ncccc3c2[nH]1
IC50 (second compound 0.0316 µM): 141 nM
IC50 (second compound 0.1 µM): 155 nM
IC50 (second compound 0.316 µM): < 31.6 nM
IC50 (second compound 1 µM): < 31.6 nM
IC50 (second compound 3.16 µM): < 31.6 nM
IC50 (second compound 10 µM): < 31.6 nM
viability, T/C [1]: 98.8%
viability, T/C [2]: 66.5%
viability, T/C [3]: 10.9%
viability, T/C [4]: 3.13%
viability, T/C [5]: 2.59%
viability, T/C [6]: 2.44%
viability, T/C [7]: 98.9%
viability, T/C [8]: 72.9%
viability, T/C [9]: 12.7%
viability, T/C [10]: 2.29%
viability, T/C [11]: 3.17%
viability, T/C [12]: 2.44%
viability, T/C [13]: 40.6%
viability, T/C [14]: 19.9%
viability, T/C [15]: 2.19%
viability, T/C [16]: 1.65%
viability, T/C [17]: 2.64%
viability, T/C [18]: 1.76%
viability, T/C [19]: 3.28%
viability, T/C [20]: 3.17%
viability, T/C [21]: 2.16%
viability, T/C [22]: 2.04%
viability, T/C [23]: 2.4%
viability, T/C [24]: 1.76%
viability, T/C [25]: 3.09%
viability, T/C [26]: 2.89%
viability, T/C [27]: 2.25%
viability, T/C [28]: 1.95%
viability, T/C [29]: 2.45%
viability, T/C [30]: 1.48%
viability, T/C [31]: 3.85%
viability, T/C [32]: 2.84%
viability, T/C [33]: 2.5%
viability, T/C [34]: 2.14%
viability, T/C [35]: 2.23%
viability, T/C [36]: 1.57%

CC1COCCN1c1cc(C2(S(C)(=N)=O)CC2)nc(-c2ccnc3[nH]ccc23)n1 (stereo not drawn) + Cc1cnc(CNC(=O)c2c(=O)c3ccc(N4CCCN(C)CC4)nc3n3c2sc2ccccc23)cn1
IC50 (second compound 0.0316 µM): 205 nM
IC50 (second compound 0.1 µM): < 31.6 nM
IC50 (second compound 0.316 µM): < 31.6 nM
IC50 (second compound 1 µM): < 31.6 nM
IC50 (second compound 3.16 µM): < 31.6 nM
IC50 (second compound 10 µM): < 31.6 nM
viability, T/C [1]: 71.7%
viability, T/C [2]: 62.6%
viability, T/C [3]: 43.3%
viability, T/C [4]: 15.1%
viability, T/C [5]: 31.4%
viability, T/C [6]: 5.8%
viability, T/C [7]: 35.4%
viability, T/C [8]: 36%
viability, T/C [9]: 16.5%
viability, T/C [10]: 10.8%
viability, T/C [11]: 12.8%
viability, T/C [12]: 4.75%
viability, T/C [13]: 26.8%
viability, T/C [14]: 20.6%
viability, T/C [15]: 13.7%
viability, T/C [16]: 7.83%
viability, T/C [17]: 13.6%
viability, T/C [18]: 4.61%
viability, T/C [19]: 13.3%
viability, T/C [20]: 17.7%
viability, T/C [21]: 13.3%
viability, T/C [22]: 8.94%
viability, T/C [23]: 11.2%
viability, T/C [24]: 6.04%
viability, T/C [25]: 11.9%
viability, T/C [26]: 10.2%
viability, T/C [27]: 10.9%
viability, T/C [28]: 8.09%
viability, T/C [29]: 10.3%
viability, T/C [30]: 5.89%
viability, T/C [31]: 9.84%
viability, T/C [32]: 9.08%
viability, T/C [33]: 9.32%
viability, T/C [34]: 8.94%
viability, T/C [35]: 9.55%
viability, T/C [36]: 4.74%

CCCS(=O)(=O)Nc1ccc(F)c(C(=O)c2c[nH]c3ncc(-c4ccc(Cl)cc4)cc23)c1F + Cc1cnc(CNC(=O)c2c(=O)c3ccc(N4CCCN(C)CC4)nc3n3c2sc2ccccc23)cn1
IC50 (second compound 0.0316 µM): 1470 nM
IC50 (second compound 0.1 µM): < 31.6 nM
IC50 (second compound 0.316 µM): < 31.6 nM
IC50 (second compound 1 µM): < 31.6 nM
IC50 (second compound 3.16 µM): < 31.6 nM
IC50 (second compound 10 µM): < 31.6 nM
viability, T/C [1]: 77.1%
viability, T/C [2]: 71.3%
viability, T/C [3]: 50.1%
viability, T/C [4]: 52.3%
viability, T/C [5]: 51.9%
viability, T/C [6]: 14.2%
viability, T/C [7]: 44.5%
viability, T/C [8]: 42.7%
viability, T/C [9]: 41.1%
viability, T/C [10]: 31.6%
viability, T/C [11]: 37.9%
viability, T/C [12]: 9.64%
viability, T/C [13]: 21%
viability, T/C [14]: 33.1%
viability, T/C [15]: 25.4%
viability, T/C [16]: 24.6%
viability, T/C [17]: 14.4%
viability, T/C [18]: 7.38%
viability, T/C [19]: 15.1%
viability, T/C [20]: 17.2%
viability, T/C [21]: 11.9%
viability, T/C [22]: 15.9%
viability, T/C [23]: 14.6%
viability, T/C [24]: 5.36%
viability, T/C [25]: 9.19%
viability, T/C [26]: 7.43%
viability, T/C [27]: 10.5%
viability, T/C [28]: 10.6%
viability, T/C [29]: 9.32%
viability, T/C [30]: 4.31%
viability, T/C [31]: 10.1%
viability, T/C [32]: 9.63%
viability, T/C [33]: 8.82%
viability, T/C [34]: 8.04%
viability, T/C [35]: 6.37%
viability, T/C [36]: 5.19%

CC[C@@]1(O)C(=O)OCc2c1cc1n(c2=O)Cc2cc3c(CN(C)C)c(O)ccc3nc2-1 + Cc1cnc(CNC(=O)c2c(=O)c3ccc(N4CCCN(C)CC4)nc3n3c2sc2ccccc23)cn1
IC50 (second compound 0.0316 µM): 13.3 nM
IC50 (second compound 0.1 µM): < 0.999 nM
IC50 (second compound 0.316 µM): < 0.999 nM
IC50 (second compound 1 µM): < 0.999 nM
IC50 (second compound 3.16 µM): < 0.999 nM
IC50 (second compound 10 µM): < 0.999 nM
viability, T/C (second compound 0.0316 µM, first compound 0.000999 µM): 69.8%
viability, T/C (second compound 0.0316 µM, first compound 0.00316 µM): 57.8%
viability, T/C (second compound 0.0316 µM, first compound 0.00999 µM): 60.4%
viability, T/C [1]: 19.8%
viability, T/C (second compound 0.0316 µM, first compound 0.0999 µM): 12.4%
viability, T/C [3]: 8.43%
viability, T/C (second compound 0.1 µM, first compound 0.000999 µM): 33%
viability, T/C (second compound 0.1 µM, first compound 0.00316 µM): 34.3%
viability, T/C (second compound 0.1 µM, first compound 0.00999 µM): 31.3%
viability, T/C [7]: 15.8%
viability, T/C (second compound 0.1 µM, first compound 0.0999 µM): 12%
viability, T/C [9]: 9.62%
viability, T/C (second compound 0.316 µM, first compound 0.000999 µM): 24.3%
viability, T/C (second compound 0.316 µM, first compound 0.00316 µM): 29.3%
viability, T/C (second compound 0.316 µM, first compound 0.00999 µM): 18%
viability, T/C [13]: 12.4%
viability, T/C (second compound 0.316 µM, first compound 0.0999 µM): 11.9%
viability, T/C [15]: 8.87%
viability, T/C (second compound 1 µM, first compound 0.000999 µM): 21.8%
viability, T/C (second compound 1 µM, first compound 0.00316 µM): 18.1%
viability, T/C (second compound 1 µM, first compound 0.00999 µM): 12.3%
viability, T/C [19]: 11.1%
viability, T/C (second compound 1 µM, first compound 0.0999 µM): 13.1%
viability, T/C [21]: 9.29%
viability, T/C (second compound 3.16 µM, first compound 0.000999 µM): 10.1%
viability, T/C (second compound 3.16 µM, first compound 0.00316 µM): 8.55%
viability, T/C (second compound 3.16 µM, first compound 0.00999 µM): 9.85%
viability, T/C [25]: 8.98%
viability, T/C (second compound 3.16 µM, first compound 0.0999 µM): 10.3%
viability, T/C [27]: 8.29%
viability, T/C (second compound 10 µM, first compound 0.000999 µM): 11.6%
viability, T/C (second compound 10 µM, first compound 0.00316 µM): 9.45%
viability, T/C (second compound 10 µM, first compound 0.00999 µM): 11.2%
viability, T/C [31]: 8.53%
viability, T/C (second compound 10 µM, first compound 0.0999 µM): 10%
viability, T/C [33]: 9.32%
